Assay results from EP4603105A1, “PHARMACEUTICAL COMPOSITION CONTAINING CYCLIC COMPOUND HAVING SELECTIVE KRAS INHIBITORY EFFECT AGAINST HRAS AND NRAS” (CHUGAI SEIYAKU KABUSHIKI KAISHA, priority 2022, dated 2024).
*1 amine or outer side, *2 acyl side, *3 side chain or, on linkers, in order; H or OH if unused. Where a SMILES comes first, the peptide text is derived from it. Bridges are numbered along the chain shown (N, C = ends). [ ]: non-standard residue; d: D form. The star is where a group is joined. hPhe(3-Cl-4-CF3) = N[C@@H](CCc1ccc(C(F)(F)F)c(Cl)c1)C(=O)O; NPrPhe(4-CF3) = CCCN[C@@H](Cc1ccc(C(F)(F)F)cc1)C(=O)O; X46 = C=CCCN([C@@H](Cc1ccc(C)cc1)C(=O)[*:2])[*:1]; X13 = CCCN([C@@H](COC1CCC1)C(=O)[*:2])[*:1]; X35 = CCCN([C@@H](CC(C)C)C(=O)[*:2])[*:1]; NMeGly(cPent) = CN[C@H](C(=O)O)C1CCCC1; NMeD = CN[C@@H](CC(=O)O)C(=O)O; NMeL = CN[C@@H](CC(C)C)C(=O)O; Morpholide = C1CN(*)CCO1; NMeA = CN[C@@H](C)C(=O)O; Ac5c = NC1(C(=O)O)CCCC1; Aze = O=C(O)[C@@H]1CCN1; Ac4c = NC1(C(=O)O)CCC1; Sar = CNCC(=O)O

Assays:
[1] = target: GDP-bound NRAS wild-type protein (Homo sapiens, UniProt P01111); assay: Binding to NRAS by surface plasmon resonance (SPR), KD and KD ratio to KRAS
Procedure, shortened: (§1)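 Single-cycle kinetics on GDP-loaded biotin-Avi RAS captured to ~100–300 RU; 75 s ascending injections, 100 µL/min, 30°C. HBS pH 7.4 + 10 mM MgCl2/10 µM GDP/4% DMSO. 1:1 fit, KD.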

HRAS wild-type protein = HRAS wild-type protein (Homo sapiens, UniProt P01112); assay: Binding to HRAS by surface plasmon resonance (SPR), KD and KD ratio to KRAS
Procedure, shortened: as §1

[2] = test system: human lung cancer strain NCI-H441; type: cell-based
Procedure, shortened: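 Proliferation was scored by […] measured after the reagent was added to cultures kept at 37°C in 5% carbon dioxide.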

[3] = ratio of KD value for GDP-bound NRAS wild-type protein to KD value for KRAS (SPR)
[4] = ratio of KD value for HRAS wild-type protein to KD value for KRAS (SPR)
[5] = ratio of the KD value with respect to GDP-bound NRAS wild-type protein to the KD value with respect to KRAS
[6] = ratio of the KD value with respect to HRAS wild-type protein to the KD value with respect to KRAS
[7] = ratio of KD for GDP-bound NRAS wild-type protein to KD for KRAS
[8] = ratio of KD for HRAS wild-type protein to KD for KRAS

Sequence of GDP-bound NRAS wild-type protein (P01111 whole entry): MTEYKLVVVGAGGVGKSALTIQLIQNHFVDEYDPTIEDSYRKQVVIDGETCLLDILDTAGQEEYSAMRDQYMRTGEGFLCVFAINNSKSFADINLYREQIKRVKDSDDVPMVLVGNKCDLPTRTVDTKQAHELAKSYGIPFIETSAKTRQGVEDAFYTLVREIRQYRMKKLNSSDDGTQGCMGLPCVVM
Sequence of HRAS wild-type protein (P01112 whole entry): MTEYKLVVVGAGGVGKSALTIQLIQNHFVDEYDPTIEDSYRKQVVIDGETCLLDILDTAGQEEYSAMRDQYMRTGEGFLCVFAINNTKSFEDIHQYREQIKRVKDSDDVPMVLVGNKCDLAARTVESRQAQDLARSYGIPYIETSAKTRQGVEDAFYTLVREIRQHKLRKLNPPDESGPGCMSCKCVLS

IC50 [2] [nM] | Compound | NRAS /KRAS [1, 3] | HRAS /KRAS (HRAS wild-type protein; [4]) | NRAS /KRAS [1, 5] | HRAS /KRAS (HRAS wild-type protein; [6]) | NRAS /KRAS [1, 7] | HRAS /KRAS (HRAS wild-type protein; [8])
17.8 | CCC[C@@H]1C[C@H]2C(=O)NC3(CC(C)(C)C3)C(=O)N(C)[C@@H](C3CCCC3)C(=O)N(C)[C@H](C(=O)N(C)C)CC(=O)N(C)[C@@H](CC)C(=O)N[C@@H]([C@@H](C)CC)C(=O)N(C)CC(=O)N(C)[C@H]3C/C=C\CCN(C3=O)[C@@H](Cc3ccc(C)cc3)C(=O)N(C)CC(=O)N[C@@H](CCc3cc(F)c(C(F)(F)F)c(F)c3)C(=O)N2C1 [PP2208] | – | – | A (a compound having 10 or more and less than 20 is denoted as A) | A (a compound having 10 or more and less than 20 is denoted as A) | – | –
6 | CCCN(C)C(=O)[C@@H]1CC(=O)N(C)[C@@H](COC)C(=O)N[C@@H]([C@@H](C)CC)C(=O)N(C)CC(=O)N(C)[C@H]2C/C=C\CCN(C2=O)[C@@H](Cc2ccc(C(F)(F)F)cc2)C(=O)N(C)CC(=O)N[C@@H](CCc2cc(F)c(C(F)(F)F)c(F)c2)C(=O)N2C[C@H](OCC)C[C@H]2C(=O)NC2(CC(C)(C)C2)C(=O)N(C)[C@@H](C2CCCC2)C(=O)N1C [PP1672] | A (a compound having 10 or more and less than 20 is denoted as A) | A (a compound having 10 or more and less than 20 is denoted as A) | – | – | – | –
14.8 | CCO[C@@H]1C[C@H]2C(=O)NC3(CC(C)(C)C3)C(=O)N(C)[C@@H](C3CCCC3)C(=O)N(C)[C@H](C(=O)N3CCCC3)CC(=O)N(C)[C@@H](CC)C(=O)N[C@@H]([C@@H](C)CC)C(=O)N(C)CC(=O)N(C)[C@H]3C/C=C\CCN(C3=O)[C@@H](Cc3ccc(C(F)(F)F)cc3)C(=O)N(C)CC(=O)N[C@@H](CCc3cc(F)c(C(F)(F)F)c(F)c3)C(=O)N2C1 [PP1944] | – | – | A (a compound having 10 or more and less than 20 is denoted as A) | A (a compound having 10 or more and less than 20 is denoted as A) | – | –
7.9 | CC[C@H](C)[C@@H]1NC(=O)[C@H](CC2CC2)N(C)C(=O)C[C@@H](C(=O)N(C)CC)N(C)C(=O)[C@H](C2CCCC2)N(C)C(=O)C2(CCC2)NC(=O)[C@@H]2C[C@H](C)CN2C(=O)[C@H](CCc2cc(F)c(C(F)(F)F)c(F)c2)NC(=O)CN(C)C(=O)[C@H](Cc2ccc(C(F)(F)F)cc2)N2CC/C=C\C[C@@H](C2=O)N(C)C(=O)CN(C)C1=O [PP1537] | AA (a compound having 20 or more is denoted as AA) | A (a compound having 10 or more and less than 20 is denoted as A) | – | – | – | –
5.5 | CCO[C@@H]1C[C@H]2C(=O)NC3(CC(C)(C)C3)C(=O)N(C)[C@@H](C3CCCC3)C(=O)N(C)[C@H](C(=O)N(C)CC)CC(=O)N(C)[C@@H](C3CCC3)C(=O)N[C@@H]([C@@H](C)CC)C(=O)N(C)CC(=O)N(C)[C@H]3C/C=C\CCN(C3=O)[C@@H](Cc3ccc(C(F)(F)F)cc3)C(=O)N(C)CC(=O)N[C@@H](CCc3cc(F)c(C(F)(F)F)c(F)c3)C(=O)N2C1 [PP2038] | – | – | A (a compound having 10 or more and less than 20 is denoted as A) | A (a compound having 10 or more and less than 20 is denoted as A) | – | –

Continued, molecule first:

Compound | IC50 [2] [nM] | NRAS /KRAS [1, 3] | HRAS /KRAS (HRAS wild-type protein; [4]) | NRAS /KRAS [1, 5] | HRAS /KRAS (HRAS wild-type protein; [6]) | NRAS /KRAS [1, 7] | HRAS /KRAS (HRAS wild-type protein; [8])
CCO[C@@H]1C[C@H]2C(=O)NC3(CCC3)C(=O)N(C)[C@@H](C(CC)CC)C(=O)N(C)[C@H](C(=O)N(C)C)CC(=O)N(C)[C@@H](CC(C)C)C(=O)N[C@@H]([C@@H](C)CC)C(=O)N(C)CC(=O)N(C)[C@H]3C/C=C\CCN(C3=O)[C@@H](Cc3ccc(F)cc3C)C(=O)N(C)CC(=O)N[C@@H](CCc3cc(F)c(C(F)(F)F)c(F)c3)C(=O)N2C1 [PP1518] | 49.4 | A (a compound having 10 or more and less than 20 is denoted as A) | B (a compound having 3 or more and less than 10 is denoted as B) | – | – | – | –
CCO[C@@H]1C[C@H]2C(=O)NC3(CCC3)C(=O)N(C)[C@@H](C3CCCC3)C(=O)N(C)[C@H](C(=O)N3CCOCC3)CC(=O)N(C)[C@@H](C)C(=O)N[C@@H]([C@@H](C)CC)C(=O)N(C)CC(=O)N(C)[C@H]3CCCCN(C3=O)[C@@H](Cc3ccc(C(F)(F)F)cc3)C(=O)N(C)CC(=O)N[C@@H](CCc3cc(F)c(C(F)(F)F)c(F)c3)C(=O)N2C1 [PP0585] | 6.2 | – | – | B (a compound having 3 or more and less than 10 is denoted as B) | B (a compound having 3 or more and less than 10 is denoted as B) | – | –
CCO[C@@H]1C[C@H]2C(=O)NC3(CCC3)C(=O)N(C)[C@@H](C3CCCC3)C(=O)N(C)[C@H](C(=O)N3CCOCC3)CC(=O)N(CC)[C@@H](CC(C)C)C(=O)N[C@@H]([C@@H](C)CC)C(=O)N(C)CC(=O)N(C)[C@H]3CC(C)=CCN(C3=O)[C@@H](Cc3ccc(C(F)(F)F)cc3)C(=O)N(C)CC(=O)N[C@@H](CCc3cc(F)c(C(F)(F)F)c(F)c3)C(=O)N2C1 [PP1044] | 44.1 | – | – | – | – | C (A compound having a KD ratio of 0.1 or more and less than 3 is denoted as C) | C (A compound having a KD ratio of 0.1 or more and less than 3 is denoted as C)
CCCN1C(=O)[C@@H]2CCN2C(=O)[C@H](C)N(C)C(=O)[C@H]([C@@H](C)CC)NC(=O)[C@H](CC(C)C)N(C)C(=O)C[C@@H](C(=O)N2CCOCC2)N(C)C(=O)[C@H](C2CCCC2)N(C)C(=O)C2(CCC2)NC(=O)[C@@H]2CCCN2C(=O)[C@H](CCc2ccc(C(F)(F)F)c(Cl)c2)NC(=O)CN(C)C(=O)[C@@H]1COC1CCC1 [PP1818] ([NMeL]I[NMeA][Aze][X13][Sar][hPhe(3-Cl-4-CF3)]P[Ac4c][NMeGly(cPent)][NMeD]-Morpholide; lactam N-11) | 74.8 | C (A compound having a KD ratio of 0.1 or more and less than 3 is denoted as C) | B (a compound having 3 or more and less than 10 is denoted as B) | – | – | – | –
C#CC[C@H]1C(=O)N[C@@H]([C@@H](C)CC)C(=O)N(C)CC(=O)N(C)[C@H]2CCCCN(C2=O)[C@@H](Cc2ccc(C(F)(F)F)cc2)C(=O)N(C)CC(=O)N[C@@H](CCc2cc(F)c(C(F)(F)F)c(F)c2)C(=O)N2C[C@H](OCC)C[C@H]2C(=O)NC2(CCC2)C(=O)N(C)[C@@H](C2CCCC2)C(=O)N(C)[C@H](C(=O)N2CCOCC2)CC(=O)N1C [PP0711] | 6.5 | – | – | C (A compound having a KD ratio of 0.1 or more and less than 3 is denoted as C) | B (a compound having 3 or more and less than 10 is denoted as B) | – | –
CC[C@H](C)[C@@H]1NC(=O)[C@H](CC(C)C)N(C)C(=O)C[C@@H](C(=O)N2CCC2)N(C)C(=O)[C@H](C2CCCC2)N(C)C(=O)C2(CCCC2)NC(=O)[C@@H]2CCCN2C(=O)[C@H](CCc2cc(F)c(C(F)(F)F)c(F)c2)NC(=O)CN(C)C(=O)[C@H](Cc2ccc(C(F)(F)F)cc2)N2CCCC[C@@H](C2=O)N(C)C(=O)CN(C)C1=O [PP0570] | 7.5 | – | – | B (a compound having 3 or more and less than 10 is denoted as B) | B (a compound having 3 or more and less than 10 is denoted as B) | – | –
CCO[C@@H]1C[C@H]2C(=O)N(C)C3(CCC3)C(=O)N(C)[C@@H](C3CCCC3)C(=O)N(C)[C@H](C(=O)N(C)C)CC(=O)N(C)[C@@H](CC)C(=O)N[C@@H]([C@@H](C)CC)C(=O)N(C)CC(=O)N(C)[C@H]3C/C=C\CCN(C3=O)[C@@H](Cc3ccc(C)cc3)C(=O)N(C)CC(=O)N[C@@H](CCc3cc(F)c(C(F)(F)F)c(F)c3)C(=O)N2C1 [PP1781] | 2.1 | A (a compound having 10 or more and less than 20 is denoted as A) | B (a compound having 3 or more and less than 10 is denoted as B) | – | – | – | –
C=CCCN1C(=O)CN(C)C(=O)CN(C)C(=O)[C@H]([C@@H](C)CC)NC(=O)[C@H](CC(C)C)N(C)C(=O)C[C@@H](C(=O)N2CCOCC2)N(C)C(=O)[C@H](C2CCCC2)N(C)C(=O)C2(CCCC2)NC(=O)[C@@H]2CCCN2C(=O)[C@H](CCc2ccc(C(F)(F)F)c(Cl)c2)NC(=O)CN(C)C(=O)[C@@H]1Cc1ccc(C)cc1 [PP0101] ([NMeL]I[Sar][Sar][X46][Sar][hPhe(3-Cl-4-CF3)]P[Ac5c][NMeGly(cPent)][NMeD]-Morpholide; lactam N-11) | 10.4 | – | – | – | – | B (a compound having 3 or more and less than 10 is denoted as B) | C (A compound having a KD ratio of 0.1 or more and less than 3 is denoted as C)
CCCN1C(=O)CN(C)C(=O)CNC(=O)[C@H]([C@@H](C)CC)NC(=O)[C@H](CC(C)C)N(C)C(=O)C[C@@H](C(=O)N2CCOCC2)N(C)C(=O)[C@H](C2CCCC2)N(C)C(=O)C2(CCC2)NC(=O)[C@@H]2CCCN2C(=O)[C@H](CCc2ccc(C(F)(F)F)c(Cl)c2)NC(=O)CN(C)C(=O)[C@@H]1Cc1ccc(C(F)(F)F)cc1 [PP0393] ([NMeL]IG[Sar][NPrPhe(4-CF3)][Sar][hPhe(3-Cl-4-CF3)]P[Ac4c][NMeGly(cPent)][NMeD]-Morpholide; lactam N-11) | 2.7 | – | – | B (a compound having 3 or more and less than 10 is denoted as B) | B (a compound having 3 or more and less than 10 is denoted as B) | – | –
CCCN1C(=O)C[C@@H](C(=O)N2CCOCC2)N(C)C(=O)[C@H](C2CCCC2)N(C)C(=O)C2(CCC2)NC(=O)[C@@H]2CCCN2C(=O)[C@H](CCc2ccc(C(F)(F)F)c(Cl)c2)NC(=O)CN(C)C(=O)[C@H](Cc2ccc(C(F)(F)F)cc2)N(CCC)C(=O)CN(C)C(=O)CN(C)C(=O)[C@H](C(C)C)NC(=O)[C@@H]1CC(C)C [PP1815] ([X35]V[Sar][Sar][NPrPhe(4-CF3)][Sar][hPhe(3-Cl-4-CF3)]P[Ac4c][NMeGly(cPent)][NMeD]-Morpholide; lactam N-11) | 83 | B (a compound having 3 or more and less than 10 is denoted as B) | B (a compound having 3 or more and less than 10 is denoted as B) | – | – | – | –
